These results are taken from PubChem BioAssay AID504868 (The Scripps Research Institute Molecular Screening Center, 2011).

In general, IC50 refers to the concentration that gives 50% inhibition.

Each structure is given as a SMILES string. Values joined by “and” are separate entries in the source; they are usually repeats but may differ in a detail not shown here. Equal values may be shown once. Active and inactive are the calls of the source. No rule for the calls is given here.

In the assay the target is Neuropeptides B/W receptor type 1 (Homo sapiens) (UniProt P48145). Description: antagonism of neuropeptide B/W receptor GPR7 – cell-based, fluorescence, dose response, set 2, late-stage follow-up (AID 504868). As to conditions: GPR7-expressing cells, fluorescence antagonist readout.

For `Cc1ccc(-n2ncc(Cl)c(Oc3ccc(CO)cc3)c2=O)cc1`, the half-maximal inhibitory concentration (IC50) by setting is: (run 1) 2260 nM; (run 2) 844 nM; (run 3) 1710 nM.

In the case of `COc1ccc(Oc2c(Cl)cnn(-c3ccc(C)cc3)c2=O)cc1`, the half-inhibitory concentration (IC50) is 1010 nM and 2230 nM (run 1); 741 nM and 1420 nM (run 2); 1350 nM (run 3).

`COC(=O)c1cnn(-c2ccc(C(C)C)cc2)c(=O)c1Oc1ccc(OC)cc1`: the IC50 runs as follows: (run 1) 2730 nM; (run 2) 1880 nM.

Consider `COc1ccc(Oc2c(C3CC3)cnn(-c3ccc(C)cc3)c2=O)cc1`, for which the IC50 runs as follows: (run 1) 6220 nM; (run 2) 4000 nM.

For the compound `COc1ccc(Oc2c(C#N)cnn(-c3ccc(C(C)C)cc3)c2=O)cc1`, the IC50 was 4190 nM (run 1) and 2410 nM (run 2).

`COc1ccc(Oc2c(-c3ccccc3)cnn(-c3ccc(C)cc3)c2=O)cc1`: the IC50 was > 20000 nM (inactive) (run 1), > 20000 nM (inactive) (run 2) and > 20000 nM (inactive) (run 3).

Turning to `COc1ccc(Oc2c(C=O)cnn(-c3ccc(C(C)C)cc3)c2=O)cc1`, the IC50 is 6200 nM (run 1) and 4410 nM (run 2).

Regarding `Cc1ccc(-n2ncc(Cl)c(Oc3ccc(C(F)(F)F)cc3)c2=O)cc1`, the IC50 (run 1) was 2160 nM, the IC50 (run 2) is 1050 nM and the half-inhibitory concentration (IC50) (run 3) is 1800 nM.

On to `Cc1ccc(-n2ncc(Cl)c(Oc3ccc(OC(F)(F)F)cc3)c2=O)cc1`, for which the half-maximal inhibitory concentration (IC50) runs as follows: (run 1) 878 nM; (run 2) 518 nM; (run 3) 836 nM.

For the compound `COc1ccc(Oc2c(C)cnn(-c3ccc(C(C)C)cc3)c2=O)cc1`, the half-maximal inhibitory concentration (IC50) was 7480 nM (run 1) and 7220 nM (run 2).
